Results published in patent US11617748B2, “Meclozine derivatives and diclazuril derivatives for use in the prevention and/or the treatment of disorders associated to the inflammation induced by P. acnes” (priority 2016, dated 2023).

Tests used:
ERK = assay: Western blot of p-ERK/ERK in P. acnes-stimulated HaCaT cells; assay type: cell-based, human; conditions: 24 h pre-treatment; for phosphorylation of ERKs induced by P. acnes: 10 μM; for phosphorylation of ERK induced by P. acnes: 25 μM
Procedure: Western Blot analysis. Whole cell protein extracts (25 μg) were separated by electrophoresis (LDS-PAGE) under denaturing conditions with NuPAGE Novex 4-12% Bis-Tris gel (1 mm, 12 wells, Invitrogen, UK) and proteins were transferred onto nitrocellulose membranes and saturated in 20 ml of saturation buffer consisting of TBS 1× (Tris Buffered Saline) containing 200 mM Tris, 1.4 M NaCl (pH 7.6), 5% no fat milk, 0.1% Tween 20 for 1 h. After washing three times for 15 min with 15 ml of TBS/T buffer [1×TBS, 0.1% Tween-20], membranes were incubated overnight with gentle mixing at 4° C. with 10 ml of rabbit polyclonal primary antibodies against human ICAM-1 (SC-7891, 1:500), PPARα (SC-398394, 1:250), PPARβ (SC-74517, 1:200), PPARγ (SC-7196, 1:500), IκB (SC-371, 1:500), p-IκB (SC-7977, 1:500), Cox-2 (SC-7951, 1:250), p-mTOR (CS, Ref 2974, 1:1000), mTOR (CS, Ref 2972, 1:1000), p-p38 (SC-17852, 1:500), p38 (SC-535, 1:250), ERK (SC-94, 1:500), JNK (SC-571, 1:500), and mouse monoclonal primary antibodies against human p-PI3 kinase (CS, Ref 4228, 1:250), PI3 kinase (CS, Ref 4257, 1:250), p-Akt1/2/3 (SC-81433, 1:500), p-ERK (SC-7383, 1:500), p-JNK (SC-6254, 1:500), -actin used to control loading, (SC-47778, 1:1000) diluted in TBS/T supplemented with 5% BSA (antibodies were purchased from Santa Cruz Biotechnology, Inc., Santa Cruz, Calif., USA abbreviated SC; and from Cell Signaling Technology, Inc. Leiden, The Netherlands abbreviated CS above). After washing to remove unbound antibodies, bound primary antibodies were detected by incubation for 1 h using secondary antibody against rabbit- and mouse IgG (Santa Cruz Biotechnology, SC-2357, 1:5000 and SC-2005, 1:5000, respectively). Unbound material was removed by washing and peroxidase activity was detected in a chemiluminescence assay (WesternBright ECL, Advansta, Menlo Park, USA).
The molecular basis for the inhibition of IL-8 production by diclazuril and meclozine has been investigated, in particular it has been evaluated if they interfered with signaling pathways known to be activated when keratinocytes are stimulated with P. acnes. It has first been confirmed the activation of IL-8 production when cells were stimulated by P. acnes while pre-treatment with both, diclazuril and meclozine, inhibit such production (FIG. 4A).
We also shown that the activation of HaCaT keratinocytes by P. acnes led to the activation of p-ERK, p-p38, p-JNK, p-PKC, p-Akt, p-mTOR (FIG. 15, panel P. acnes alone) and p-PI3K (FIG. 16, panel P. acnes alone).

ICAM-1 = assay: Western blot of ICAM-1 expression in P. acnes-stimulated HaCaT cells; assay type: cell-based, human; conditions: 25 μM, 24 h pre-treatment
Procedure: Western Blot analysis. Whole cell protein extracts (25 μg) were separated by electrophoresis (LDS-PAGE) under denaturing conditions with NuPAGE Novex 4-12% Bis-Tris gel (1 mm, 12 wells, Invitrogen, UK) and proteins were transferred onto nitrocellulose membranes and saturated in 20 ml of saturation buffer consisting of TBS 1× (Tris Buffered Saline) containing 200 mM Tris, 1.4 M NaCl (pH 7.6), 5% no fat milk, 0.1% Tween 20 for 1 h. […] After washing to remove unbound antibodies, bound primary antibodies were detected by incubation for 1 h using secondary antibody against rabbit- and mouse IgG (Santa Cruz Biotechnology, SC-2357, 1:5000 and SC-2005, 1:5000, respectively). Unbound material was removed by washing and peroxidase activity was detected in a chemiluminescence assay (WesternBright ECL, Advansta, Menlo Park, USA). […]

Cc1cccc(CN2CCN(C(c3ccccc3)c3ccc(Cl)cc3)CC2)c1 (stereo not drawn) [meclozine, Meclozine]
phosphorylation of ERKs induced by P. acnes (ERK): prevented the phosphorylation of ERKs
phosphorylation of ERK induced by P. acnes (ERK): prevented the phosphorylation
P. acnes-induced ICAM-1 expression (ICAM-1): decreased its expression

N#CC(c1ccc(Cl)cc1)c1c(Cl)cc(-n2ncc(=O)[nH]c2=O)cc1Cl (stereo not drawn) [diclazuril, Diclazuril]
phosphorylation of ERKs induced by P. acnes (ERK): prevented the phosphorylation of ERKs
phosphorylation of ERK induced by P. acnes (ERK): prevented the phosphorylation
P. acnes-induced ICAM-1 expression (ICAM-1): no effect
